From PubChem BioAssay AID623948 (Vanderbilt Specialized Chemistry Center, 2012) come the findings set out here.

Active and inactive are the calls of the source.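 How the source made its calls: active means compound shifting the acetylcholine potency curve by more than threefold; inactive means the rest.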

This test concerns the target Muscarinic acetylcholine receptor M4 (Homo sapiens) (UniProt P08173). In words: ACh curve leftward shift by hM4 PAMs, SAR follow-up, mechanism study, CHO cells, Gqi5 chimera, calcium mobilization (AID 623948). The following applies: for outcome / % ACh max: ACh fold shift; for % ACh max: measured here: ACh max response with compound; for % ACh max / fold shift: at 30 µM, stronger effect = higher value. Background: Calcium flux is commonly read through the fluorescence of an indicator in the cells.

Sequence of Muscarinic acetylcholine receptor M4 (Homo sapiens) (P08173 whole entry, looked up): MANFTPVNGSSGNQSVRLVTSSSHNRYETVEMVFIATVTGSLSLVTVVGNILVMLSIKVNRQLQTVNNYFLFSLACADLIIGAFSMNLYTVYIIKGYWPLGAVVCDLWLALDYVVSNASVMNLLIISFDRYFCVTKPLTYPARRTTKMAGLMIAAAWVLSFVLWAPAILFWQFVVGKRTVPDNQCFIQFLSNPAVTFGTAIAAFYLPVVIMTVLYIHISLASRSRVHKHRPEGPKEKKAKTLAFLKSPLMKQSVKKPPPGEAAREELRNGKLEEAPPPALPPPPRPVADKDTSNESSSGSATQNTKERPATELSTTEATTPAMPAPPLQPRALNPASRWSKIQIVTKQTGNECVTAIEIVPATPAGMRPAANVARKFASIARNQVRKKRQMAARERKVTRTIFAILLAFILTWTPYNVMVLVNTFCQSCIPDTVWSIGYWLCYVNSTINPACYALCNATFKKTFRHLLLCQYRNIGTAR

`Cc1nc2sc(C(=O)NCCc3ccncc3)c(N)c2c(C)c1Cl`: the outcome is “active; potentiator”.

As to `COc1ccc(C)c2sc(NC(=O)C3=COCCO3)nc12`, the % ACh max worked out at 106% and the fold shift was 5.98.

For the compound `Cc1nc2sc(C(=O)NC3CC3)c(N)c2c(C)c1Cl`, the outcome is “active; potentiator”.

As to `Cc1nc2sc(C(=O)NCc3ccncc3)c(N)c2c(C)c1Cl`, the outcome is “active; potentiator”.

`Cc1nc2sc(C(=O)NCc3ccc4c(c3)OCO4)c(N)c2c(C)c1Cl`: the outcome is “active; potentiator”.

As to `Cc1nc2sc(C(=O)NCc3ccccc3)c(N)c2c(C)c1Cl`, the outcome was “active; potentiator”.

Consider `Cc1nc2sc(C(=O)NC3CCOCC3)c(N)c2c(C)c1Cl`, for which the outcome was “active; potentiator”.

As for `Cc1nc2sc(C(=O)NCc3ccncn3)c(N)c2c(C)c1Cl`, the outcome was “active; potentiator”.

For the compound `COc1ccc(C)c2sc(NC(=O)c3ccncc3)nc12`, the % ACh max turned out to be 110% and the fold shift is 14.9.

In the case of `COc1ccc(C)c2sc(NC(=O)c3cnccn3)nc12`, the % ACh max was 110% and the fold shift was 3.65.

For `COc1ccc(C)c2sc(NC(=O)c3ccco3)nc12`, the % ACh max is 112% and the fold shift is 3.63.

Turning to `Cc1nc2sc(C(=O)NCc3cccc(F)c3F)c(N)c2c(C)c1Cl`, the outcome was “active; potentiator”.

Consider `Cc1nc2sc(C(=O)NCc3nccs3)c(N)c2c(C)c1Cl`, for which the outcome was “active; potentiator”.

On to `Cc1nc2sc(C(=O)NCc3cccnc3)c(N)c2c(C)c1Cl`, for which the outcome was “active; potentiator”.

For the compound `COc1ccc(C)c2sc(NC(=O)c3cccnc3)nc12`, the % ACh max was found to be 105% and the fold shift was 2.93.
